Data reported in patent publication US10941121B2 (AZIENDA OSPEDALIERA UNIVERSITARIA SENESE, priority 2015, dated 2021).
Where two headings read alike, the source gives them in different places.

Key:
[1] = Cytotoxicity, MTT method in HuH7.5 cells; format: cell-based; conditions: human, non-infected, read-out: HCV CC50
Description: (§1) After 4 h of incubation at 37° C. in a humidified atmosphere with 5% CO2, the amount of formazan produced was quantified spectrophotometrically at 550/620 nm (C. Pannecouque et al, Nature protocol 2008; 3 (3): 427-434). […] These assays were done in duplicate.

[2] = Cytotoxicity, MTT method in LUNET cells; format: cell-based; conditions: human; MMT method in LUNET cells; read-out: CC50 (μM) non-infected cells
Description: as §1, with “Toxicity (CC50) was analysed in the Lunet/HuH7 cells by the addition of 10 μL of MTT (3-(4,5-dimethylthiazol-2-yl)-2,5-diphenyltetrazolium bromide) per well. After” for “After”

NS3 (HCV) = NS3 (HCV) (Hepacivirus hominis (Hepatitis C virus), UniProt P26663); assay: Selectivity of 20a: NS3 (HCV); format: biochemical
[3] = Cytotoxicity in PBMC, CellTiter 96 MTS viability assay; format: cell-based; conditions: human, human primary PBMCs
[4] = tested on: HIV-1 wild-type reference strain NL4-3; assay: HIV-1 phenotypic assay, MT-2 cells then TZM-bl cells, luciferase; format: cell-based; conditions: Human immunodeficiency virus 1, NL43
[5] = tested on: Hepatitis C Virus (HCV) replicon system; assay: HCV replicon system, luciferase method in LucUbiNeo-ET cells
[6] = tested on: HIV-1 strains carrying resistance mutations; assay: microbe, parasite or virus in culture; format: cell-based; conditions: for IC50: Human immunodeficiency virus 1, TZM-bl
HIV (PBMC) = assay: HIV infectious cell culture system in PBMC, HIV-1 RNA in supernatant; conditions: Human immunodeficiency virus 1, PBMC, 72 h, read-out: EC50 HIV (PBMC) 72 h
[7] = Parallel Artificial Membrane Permeability Assay (PAMPA); format: in vitro ADME
NS3 (DENV) = NS3 (DENV) (Orthoflavivirus denguei (Dengue virus), UniProt P29990); assay: Selectivity of 20a: NS3 (DENV); format: biochemical
JEV strain (NJ2008) = assay: JEV infectious cell culture system, plaque formation assay in BHK-21 cells; conditions: Japanese encephalitis virus, BHK-21, read-out: JEV EC50
DDX3 Helicase = DDX3 Helicase (Homo sapiens, UniProt O00571); conditions: read-out: ID50 (μM) against DDX3 Helicase; n.a. = compound not active
Water Solubility Assay = format: physicochemical; conditions: thermodynamic from solid
[8] = Cytotoxicity in the JEV cell culture system; conditions: hamster

DDX3 Helicase, sequence (O00571 whole entry): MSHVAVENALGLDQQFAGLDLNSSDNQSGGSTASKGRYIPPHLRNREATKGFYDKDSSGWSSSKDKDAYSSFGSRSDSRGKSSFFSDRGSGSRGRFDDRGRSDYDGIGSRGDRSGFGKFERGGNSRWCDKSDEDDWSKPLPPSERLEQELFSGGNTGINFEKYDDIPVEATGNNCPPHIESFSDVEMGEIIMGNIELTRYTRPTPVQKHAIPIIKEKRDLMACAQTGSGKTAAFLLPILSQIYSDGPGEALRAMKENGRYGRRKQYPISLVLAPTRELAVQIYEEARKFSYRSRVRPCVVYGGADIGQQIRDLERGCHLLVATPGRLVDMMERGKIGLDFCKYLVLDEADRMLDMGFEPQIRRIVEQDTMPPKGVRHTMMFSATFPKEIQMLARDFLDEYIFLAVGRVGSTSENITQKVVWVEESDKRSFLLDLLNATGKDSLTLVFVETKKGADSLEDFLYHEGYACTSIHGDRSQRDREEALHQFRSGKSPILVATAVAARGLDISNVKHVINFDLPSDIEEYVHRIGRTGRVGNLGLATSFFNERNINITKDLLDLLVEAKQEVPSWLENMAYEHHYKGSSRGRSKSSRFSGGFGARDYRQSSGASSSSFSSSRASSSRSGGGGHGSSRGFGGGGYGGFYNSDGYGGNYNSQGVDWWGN
NS3 (DENV), sequence (P29990 1476-2093): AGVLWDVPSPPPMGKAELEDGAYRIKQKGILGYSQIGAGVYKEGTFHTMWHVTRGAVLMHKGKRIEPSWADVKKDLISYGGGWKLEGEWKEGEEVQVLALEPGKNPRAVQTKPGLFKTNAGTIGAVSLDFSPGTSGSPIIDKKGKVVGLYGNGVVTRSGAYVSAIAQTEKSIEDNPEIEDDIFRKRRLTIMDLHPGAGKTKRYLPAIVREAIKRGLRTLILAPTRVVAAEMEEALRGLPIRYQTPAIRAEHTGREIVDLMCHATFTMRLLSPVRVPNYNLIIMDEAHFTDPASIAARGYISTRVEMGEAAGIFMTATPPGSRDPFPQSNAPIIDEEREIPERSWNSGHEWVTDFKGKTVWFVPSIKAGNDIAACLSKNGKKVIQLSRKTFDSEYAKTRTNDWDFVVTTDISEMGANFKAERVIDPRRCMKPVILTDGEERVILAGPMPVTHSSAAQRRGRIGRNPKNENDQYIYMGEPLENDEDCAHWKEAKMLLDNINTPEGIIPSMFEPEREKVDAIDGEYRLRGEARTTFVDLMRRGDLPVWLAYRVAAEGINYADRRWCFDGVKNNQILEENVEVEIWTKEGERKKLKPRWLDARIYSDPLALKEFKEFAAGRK
NS3 (HCV), sequence (P26663 1027-1657): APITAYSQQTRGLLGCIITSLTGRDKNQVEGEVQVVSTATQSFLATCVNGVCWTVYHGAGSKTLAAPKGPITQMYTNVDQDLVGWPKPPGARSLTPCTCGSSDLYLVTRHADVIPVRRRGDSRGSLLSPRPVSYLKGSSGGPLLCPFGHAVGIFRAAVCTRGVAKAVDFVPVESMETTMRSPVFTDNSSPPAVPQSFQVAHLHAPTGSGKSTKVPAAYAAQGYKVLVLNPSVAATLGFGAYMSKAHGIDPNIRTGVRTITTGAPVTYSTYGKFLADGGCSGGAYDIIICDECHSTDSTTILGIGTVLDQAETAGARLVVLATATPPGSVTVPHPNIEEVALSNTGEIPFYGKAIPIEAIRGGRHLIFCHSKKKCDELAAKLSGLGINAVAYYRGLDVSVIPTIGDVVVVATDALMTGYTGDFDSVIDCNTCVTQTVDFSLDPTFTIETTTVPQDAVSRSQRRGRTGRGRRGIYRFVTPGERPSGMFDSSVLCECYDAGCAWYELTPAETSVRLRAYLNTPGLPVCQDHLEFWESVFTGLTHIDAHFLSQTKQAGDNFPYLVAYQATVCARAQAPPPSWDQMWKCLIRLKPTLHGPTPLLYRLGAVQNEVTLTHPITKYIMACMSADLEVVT

Question: Which results are given for `CCCCc1cn(-c2ccc(NC(=O)Nc3ccccc3C)cc2)nn1` [Compound 20a, 1-(4-(4-butyl-1H-1,2,3-triazol-1-yl)phenyl)-3-o-tolylurea]?
Answer: CC50 [1]: 10.1 µM; CC50 [2]: 49.8 µM; IC50 (NS3 (HCV)): 16.8 µM; CC50 at 24 h ([3]; 24 h): > 1000 µM; CC50 at 48 h ([3]; 48 h): > 1000 µM; CC50 at 72 h ([3]; 72 h): > 1000 µM; EC50 ([4]; first cycle in MT-2 cells, additional round in TZM-bl cells): 1.1 µM; IC50 ([4]; strain 114, NL4-3 wild type, read-out: IC50 [95% CI] (μM), HIV-1 strain 114): 1.11 µM; activity against HCV, in words [5]: best activity; EC50 ([5]; Hepatitis C virus, 48 h, read-out: EC50 (μM) HCV replicon system): 0.97 µM; IC50 ([6]; read-out: IC50 [95% CI] (μM), HIV-1 strain 7404): 0.22 µM; IC50 ([6]; read-out: IC50 [95% CI] (μM), HIV-1 strain 7406): 0.33 µM; IC50 ([6]; read-out: IC50 [95% CI] (μM), HIV-1 strain 11808): 0.23 µM; IC50 ([6]; read-out: IC50 [95% CI] (μM), HIV-1 strain 11845): 0.37 µM; IC50 ([6]; read-out: IC50 [95% CI] (μM), HIV-1 strain 12227): 0.94 µM; IC50 ([6]; read-out: IC50 [95% CI] (μM), HIV-1 strain 12235): 0.36 µM; Fold change, strain 7404 ([6]; resistant strain IC50 to wild type strain IC50 ratio, 7404 NRTIs): 0.2; Fold change, strain 7406 ([6]; resistant strain IC50 to wild type strain IC50 ratio, 7406 NRTIs): 0.3; Fold change, strain 11808 ([6]; resistant strain IC50 to wild type strain IC50 ratio, 11808 PIs): 0.2; Fold change, strain 11845 ([6]; resistant strain IC50 to wild type strain IC50 ratio, 11845 INIs): 0.3; Fold change, strain 12227 ([6]; resistant strain IC50 to wild type strain IC50 ratio, 12227 NNRTIs): 0.8; Fold change, strain 12235 ([6]; resistant strain IC50 to wild type strain IC50 ratio, 12235 NNRTIs): 0.3; activity against resistant HIV viruses, in words ([6]; viruses carrying resistance mutations): retained full activity; EC50 (HIV (PBMC)): 30 µM; Papp at 5 h, 0.5 mM ([7]; PAMPA, phosphatidylcholine in dodecane, pH 7.4, 5 h, room temperature, read-out: PAMPA Papp *10^−6 (cm/s) GI): 28.6 nm/s; PAMPA membrane retention (RM %) ([7]; value in brackets in the PAMPA cell): 19.1%; IC50 (NS3 (DENV)): > 200 µM; EC50 (JEV strain (NJ2008)): 20 µM; IC50 (DDX3 Helicase): 0.3 µM; solubility (Water Solubility Assay; experimental aqueous solubility, read-out: LogS (converted)): 0.0891 µM; solubility (Water Solubility Assay; room temperature, 24-36 h, read-out: Aq. Solub.): 0.135 µg/mL; CC50 [8]: > 50 µM
